SMILES strings stand for the structures.

Common to all, as to assay type: biochemical
The target in one experiment is T1, MMP-2 (Homo sapiens, UniProt P08253).
T1 sequence (P08253 110-660): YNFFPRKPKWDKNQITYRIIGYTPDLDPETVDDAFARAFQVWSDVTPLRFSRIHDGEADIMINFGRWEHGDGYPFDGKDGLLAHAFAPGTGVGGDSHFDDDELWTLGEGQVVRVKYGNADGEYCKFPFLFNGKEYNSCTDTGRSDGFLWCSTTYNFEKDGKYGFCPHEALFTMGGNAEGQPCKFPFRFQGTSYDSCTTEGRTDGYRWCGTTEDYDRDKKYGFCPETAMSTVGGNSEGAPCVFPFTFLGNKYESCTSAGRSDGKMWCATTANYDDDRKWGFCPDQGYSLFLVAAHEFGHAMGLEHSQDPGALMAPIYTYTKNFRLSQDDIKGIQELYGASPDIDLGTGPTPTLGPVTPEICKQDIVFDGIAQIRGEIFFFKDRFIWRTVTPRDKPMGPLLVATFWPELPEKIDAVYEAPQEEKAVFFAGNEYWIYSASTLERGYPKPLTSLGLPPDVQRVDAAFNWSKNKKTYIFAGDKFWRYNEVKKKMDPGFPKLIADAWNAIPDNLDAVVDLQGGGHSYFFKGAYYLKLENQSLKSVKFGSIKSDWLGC
Put plainly: Automated MMP Profiling Assay, MMP-2 fluorogenic. The conditions noted are these: for IC50: 96-well automated, P218, read-out: MMP-2 Fluorogenic IC50 (profiling).

For another experiment, the target named is T2, MMP-9 (Homo sapiens, UniProt P14780).
T2 construct: from tissue; host or cells: human polymorphonuclear leukocytes (PMN) from whole blood (New York Blood Center), PMA-stimulated supernatant
T2 sequence (P14780 107-707 limits assumed): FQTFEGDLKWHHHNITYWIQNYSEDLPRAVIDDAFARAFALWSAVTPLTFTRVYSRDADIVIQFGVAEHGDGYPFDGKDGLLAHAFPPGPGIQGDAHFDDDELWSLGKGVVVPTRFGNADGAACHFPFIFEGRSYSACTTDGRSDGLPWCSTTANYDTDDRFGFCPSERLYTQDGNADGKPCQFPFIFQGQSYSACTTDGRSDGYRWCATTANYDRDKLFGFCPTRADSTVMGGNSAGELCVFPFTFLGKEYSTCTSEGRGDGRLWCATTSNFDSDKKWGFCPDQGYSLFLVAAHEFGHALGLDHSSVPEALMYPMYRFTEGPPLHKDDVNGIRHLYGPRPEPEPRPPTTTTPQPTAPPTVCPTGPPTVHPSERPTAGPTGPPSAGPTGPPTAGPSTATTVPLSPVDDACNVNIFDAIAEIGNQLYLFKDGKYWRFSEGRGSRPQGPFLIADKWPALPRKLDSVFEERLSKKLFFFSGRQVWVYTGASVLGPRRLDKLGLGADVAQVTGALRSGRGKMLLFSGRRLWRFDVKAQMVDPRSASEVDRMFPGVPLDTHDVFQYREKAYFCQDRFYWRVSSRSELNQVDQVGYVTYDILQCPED
Put plainly: Automated MMP Profiling Assay, MMP-9 fluorogenic. The conditions noted are these: for IC50: 96-well automated, P218. The protocol:
Briefly, polymorphonuclear leukocytes (PMN) preparations were isolated as described above from 3 or more units of freshly drawn whole blood obtained from the New York Blood Center (New York, N.Y.). Cells were resuspended in phosphate buffered saline (PBS) containing 100 ng/ml phorbol myristate acetate (PMA) in the presence of 50 mM diisopropylfluorophospate (DFP), 1 μg/ml leupeptin and aprotinin, and 1 mg/ml catalase for 1 hr at 37° C. Supernatants were collected by centrifugation (300×g) and the samples were frozen at -70° C. All chromatographic methods were performed at 4° C. Thawed samples were concentrated 5-fold using an Amicon chamber equipped with a YM-10 membrane. The concentrate was pressure dialyzed against 0.02M Tris-HCl, 0.1M NaCl, 1 mM CaCl2, 1 μM ZnCl2, 0.001% Brij-35, 0.02% sodium azide (NaN3), pH 7.5 and applied to DEAE ion exchange chromatography resin which was previously equilibrated with the same buffer at a flow rate of 0.4 ml/min. The column was extensively washed with the same buffer and gelatinase was eluted as 4 ml fractions from the column with 0.02M Tris-HCl, 0.5M NaCl, 1 mM CaCl2, 1 μM ZnCl2, 0.001% Brij-35, 0.02% NaN3, pH 7.5. Gelatinase containing fractions were observed by gelatin zymography (see below), loaded onto a gelatin agarose affinity resin and washed with the same buffer. Gelatinase activity was eluted at a flow rate of 1 ml/min from the column as 1 ml fractions with 0.02M Tris-HCl, 1M NaCl, 1 mM CaCl2, 1 μM ZnCl2, 0.001% Brij-35, 0.02% NaN3, pH 7.5 containing 10% dimethyl sulfoxide (DMSO). The fractions containing gelatinase activity were pooled and dialyzed against 0.005M Tris-HCl, 5 mM NaCl, 0.5 mM CaCl2, 0.1 μM ZnCl2, 0.001% Brij-35, pH 7.4. The protein content associated with material was determined with a micro-BCA assay (Pierce, Rockford, Ill.), lyophilized and reconstituted to a desired working concentration (100 μg/ml).
This assay was run with a protocol analogous to that reported for MMP-3 inhibition using the synthetic peptide P218 and each of the three enzymes and measuring quenched fluorescence. This assay with each invention compound was run with the three enzymes MMP-3, MMP-9 and MMP-2 in parallel as adapted for a 96-well microtitre plate using a Hamilton A® workstation.

The target of another experiment is T3, MMP-3 (Homo sapiens, UniProt P08254).
T3 construct: Truncated Prostromelysin-257 was expressed in a soluble form in E.coli; made in house; host or cells: E. coli
T3 sequence (P08254 100-274 limits assumed): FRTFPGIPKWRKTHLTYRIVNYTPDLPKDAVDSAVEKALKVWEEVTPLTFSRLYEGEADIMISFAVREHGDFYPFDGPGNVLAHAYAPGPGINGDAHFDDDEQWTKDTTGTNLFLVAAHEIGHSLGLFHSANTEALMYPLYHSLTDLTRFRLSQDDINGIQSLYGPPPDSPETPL
Put plainly: Automated MMP Profiling Assay, MMP-3 fluorogenic. The conditions noted are these: for IC50: 96-well automated, P218. From the text:
This assay with each invention compound was run with the three enzymes MMP-3, MMP-9 and MMP-2 in parallel as adapted for a 96-well microtitre plate using a Hamilton A® workstation.

On to `CCCCC(=O)Nc1ccc(-c2ccc(C(=O)CC(CCc3ccccc3)C(=O)O)cc2)cc1` (stereo not drawn) [Example 140, [1,1'-Biphenyl]-4-butanoic acid, γ-oxo-4'-[(1-oxopentyl)amino]-α-(2-phenylethyl)-], for which the concentration for half-maximal inhibition (IC50) at MMP-2 is 0.242 µM; on MMP-9 it was greater than 1.25 µM; at MMP-3 it was 1.03 µM.

Consider `O=C(CC(CCCc1ccccc1)C(=O)O)c1ccc(-c2ccc(OCc3ccncc3)cc2)cc1` (stereo not drawn) [Example 111, [1,1'-Biphenyl]-4-butanoic acid, γ-oxo-α-(3-phenylpropyl)-4'-(4-pyridinylmethoxy)-], for which the 50% inhibitory concentration (IC50) on MMP-2 worked out at 0.0039 µM; against MMP-9, 4.73 µM; against MMP-3, 0.018 µM.

With `O=C(CC(CCN1C(=O)c2cc(Cl)c(Cl)cc2C1=O)C(=O)O)c1ccc(-c2ccc(Cl)cc2)cc1` (stereo not drawn) [Example 415, 2H-Isoindole-2-butanoic acid, 5,6-dichloro-α-[2-(4'-chloro[1,1'-biphenyl]-4-yl)-2-oxoethyl]-1,3-dihydro-1,3-dioxo-], the values for the IC50 on MMP-2, at MMP-9 and against MMP-3 were 0.034 µM, 0.0012 µM and 0.012 µM, respectively.

`CC(=O)O[C@H]1C[C@H](C(=O)c2ccc(-c3ccc(Cl)cc3)cc2)[C@H]1C(=O)O` (relative stereo) [Example 395, Cyclobutanecarboxylic acid, 2-(acetyloxy)-4-[(4'-chloro[1,1'-biphenyl]-4-yl)carbonyl]-, (1α,2α,4β)-]: the results for the IC50 at MMP-2 and on MMP-3 were 0.56 µM and 2.2 µM, respectively. At 5 µM the inhibition against MMP-9 was 44%.

As to `O=C(O)[C@@H]1CN(Cc2ccccc2)C[C@H]1C(=O)c1ccc(-c2ccc(Cl)cc2)cc1` (relative stereo) [Example 175, 3-Pyrrolidinecarboxylic acid, 4-[(4'-chloro[1,1'-biphenyl]-4-yl)carbonyl]-1-(phenylmethyl)-, trans-], at MMP-2, the IC50 stood at 5 µM. In addition, the inhibition at 5 µM is 6% on MMP-9 and 28% against MMP-3.

As for `COc1ccc(-c2ccc(C(=O)CC(CCc3ccccc3)C(=O)O)cc2)cc1` (stereo not drawn) [Example 154, [1,1'-Biphenyl]-4-butanoic acid, 4'-methoxy-γ-oxo-α-(2-phenylethyl)-], the half-maximal inhibitory concentration (IC50) is 0.037 µM at MMP-2, 0.875 µM at MMP-9 and 0.47 µM against MMP-3.

In the case of `COc1cccc(C(=O)OC[C@@H]2CC[C@H](C(=O)c3ccc(-c4ccc(Cl)cc4)cc3)[C@H]2C(=O)O)c1` (relative stereo) [Example 382, Benzoic acid, 3-methoxy-, [2-carboxy-3-[(4'-chloro[1,1'-biphenyl]-4-yl)carbonyl]cyclopentyl]methyl ester, (1α,2β,3α)-], the 50% inhibitory concentration (IC50) on MMP-2 is 0.064 µM; at MMP-9 it was 0.039 µM; against MMP-3 it was 0.042 µM.

`O=C(O)[C@H]1[C@H](CON2C(=O)c3ccccc3C2=O)CC[C@@H]1C(=O)c1ccc(-c2ccc(Cl)cc2)cc1` (relative stereo) [Example 389, Cyclopentanecarboxylic acid, 2-[(4'-chloro[1,1'-biphenyl]-4-yl)carbonyl]-5-[[(1,3-dihydro-1,3-dioxo-2H-isoindol-2-yl)oxy]methyl]-, (1α,2β,5β)-]: the 50% inhibitory concentration (IC50) at MMP-2 was 0.0063 µM; against MMP-9, 0.023 µM; against MMP-3 it was 0.015 µM.

Regarding `O=C(O)c1ccccc1S[C@H]1CC[C@H](C(=O)c2ccc(-c3ccc(Cl)cc3)cc2)[C@H]1C(=O)O` (relative stereo) [Example 301, Benzoic acid, 2-[[2-carboxy-3-[(4'-chloro[1,1'-biphenyl]-4-yl)carbonyl]cyclopentyl]thio]-, [1S-(1α,2α,3β)]-], the IC50 at MMP-2 is 0.018 µM; against MMP-9 it was 0.29 µM; on MMP-3, 0.03 µM.

As for `COC(=O)c1ccccc1S[C@@H]1CC[C@@H](C(=O)c2ccc(-c3ccc(Cl)cc3)cc2)[C@@H]1C(=O)O` [Example 300, (1R,2R,5R)-trans-5-[4-(4-chlorophenyl)phenylcarbonyl]-cis-2-(2-methoxycarbonylphenylthio)cyclopentanecarboxylic acid], the concentration for half-maximal inhibition (IC50) at MMP-2 is 2.5 µM; on MMP-9, greater than 1.25 µM; against MMP-3, greater than 1.25 µM.

For the compound `CC(=O)Oc1ccc2c(c1)C(=O)N(CCC(CC(=O)c1ccc(-c3ccc(Cl)cc3)cc1)C(=O)O)C2=O` (stereo not drawn) [Example 425, 2H-Isoindole-2-butanoic acid, 5-(acetyloxy)-α-[2-(4'-chloro[1,1'-biphenyl]-4-7l)2-oxoetyl]-1,3-dihydro-1,3-dioxo-], the values for the IC50 at MMP-2, at MMP-9 and against MMP-3 were 0.014 µM, 0.0012 µM and 0.0038 µM, respectively.

Turning to `O=C(CC(CCN1C(=O)c2cccc(O)c2C1=O)C(=O)O)c1ccc(-c2ccc(Cl)cc2)cc1` (stereo not drawn) [Example 421, 2H-Isoindole-2-butanoic acid, α-[2-(4'chloro[1,1'-biphenyl]-4-yl)-2-oxoethyl]-1,3-dihydro-4-hydroxy-1,3-dioxo-], the results for the IC50 at MMP-2, against MMP-9 and against MMP-3 were 0.00075 µM, 0.0017 µM and 0.012 µM, respectively.

`CCCCCOc1ccc(-c2ccc(C(=O)[C@H]3CC[C@@H](Cc4ccccc4)[C@@H]3C(=O)O)cc2)cc1` [Example 324, Cyclopentanecarboxylic acid, 2-[[4'-(pentyloxy)[1,1'-biphenyl]-4-yl]carbonyl]-5-(phenylmethyl)-, [1S-(1α,2β,5β)]-]: the IC50 on MMP-2 came out at 0.0081 µM; at MMP-9 it was 0.343 µM; on MMP-3 it was 0.046 µM.

Regarding `O=C(CC(CCN1C(=O)c2ccc(O)cc2C1=O)C(=O)O)c1ccc(-c2ccc(Cl)cc2)cc1` (stereo not drawn) [Example 420, 2H-Isoindole-2-butanoic acid, α-[2-(4'chloro[1,1'-biphenyl]-4-yl)-2-oxoethyl]-1,3-dihydro-5-hydroxy-1,3-dioxo-], the half-inhibitory concentration (IC50) on MMP-2 turned out to be 0.0051 µM; at MMP-9, 0.0017 µM; against MMP-3, 0.014 µM.

For the compound `CCCCCCc1ccc(-c2ccc(CCC(CCCc3ccccc3)C(=O)O)cc2)cc1` (stereo not drawn) [Example 357, [1,1'-Biphenyl]-4-butanoic acid, 4'-hexyl-α-(3-phenylpropyl)-], the values for the inhibition at 5 µM on MMP-2 (at 5 μM), at MMP-9 and against MMP-3 were 38%, 4% and 15%, respectively.

As for `O=C(CC(CCCc1ccccc1)C(=O)O)c1ccc(-c2ccc(OCCc3ccccc3)cc2)cc1` (stereo not drawn) [Example 102, [1,1'-Biphenyl]-4-butanoic acid, γ-oxo-4'-(2-phenylethoxy)-α-(3-phenylpropyl)-], the IC50 on MMP-2 was 0.025 µM; at MMP-9 it was 0.698 µM; against MMP-3, 0.078 µM.

For the compound `CCCCCOc1ccc(-c2ccc(C(=O)C3CCC=C3C(=O)O)cc2)cc1` (stereo not drawn) [Example 442, 1-Cyclopentene-1-carboxylic acid, 5-[[4'-(pentyloxy)[1,1'-biphenyl]-4-yl]carbonyl]-], the half-inhibitory concentration (IC50) was 0.962 µM at MMP-2 and 2.76 µM against MMP-3. On MMP-9, this compound gave an inhibition at 5 µM of 40%.

Take `CCCCCOc1ccc(-c2ccc(C(=O)[C@H]3CC[C@@H](Sc4ccccc4)[C@@H]3C(=O)O)cc2)cc1` (single isomer, unassigned) [Example 319, Cyclopentanecarboxylic acid, 2-[[4'-(pentyloxy)[1,1'-biphenyl]-4-yl]carbonyl]-5-(phenylthio)-, (1α,2β,5β)-(+)-]: the half-inhibitory concentration (IC50) on MMP-2 worked out at 0.0041 µM; against MMP-9, 0.197 µM; against MMP-3, 0.03 µM.

One may read the IC50 as the concentration needed to halve the response being measured. One may read the inhibition as the share of the control response that was lost under treatment.

Source of the values: patent US5789434A, “Derivatives of substituted 4-biarylbutyric acid as matrix metalloprotease inhibitors” (priority 1995, dated 1998).
